Test results published in the NIST ThermoML archive (doi:10.1016/j.fluid.2016.01.044).
± gives the expanded uncertainty stated by the source.

Assays:
[1] = Molar enthalpy of transition or fusion; settings: Crystal; DSC
[2] = Crystal; DTA

Molar enthalpy of transition or fusion [1] [kcal/mol]	Normal melting temperature [2] [°C]	SMILES
9.15 ± 0.263	-0.20 ± 0.5	CCCCCCCCCCCC(=O)OCC [ethyl dodecanoate]
	24.78 ± 0.5	CCCCCCCCCCCCCCCC(=O)OCC [ethyl hexadecanoate]
6.89 ± 0.196	-28.52 ± 0.5	CCCCCCCCCC [decane]
